Source: ChEMBL document CHEMBL1201862, “PubChem BioAssay data set” (2004)
Each block holds one compound with its values, some of them ahead of it. The source made the active and inactive calls.

What was measured:
[1] = DRD fibroblast viability loss – cell-based, non-viral oncogenic, luminescence, dose response (AID 1934); type: functional; details: Homo sapiens
BJ [2] = test: cells; type: functional, cell-based; details: Homo sapiens
BJ [3] = test: BJ-TERT-LT-ST fibroblast viability loss – cell-based, RAS-independent, luminescence, dose response (AID 1935); type: functional; details: Homo sapiens;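 also: BJ fibroblasts immortalized with TERT plus LT and ST oncogenes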
Hexokinase HKDC1 = molecular target: T1, Hexokinase HKDC1 (Homo sapiens, UniProt Q2TB90); test: inhibition of HKDC1 glucose phosphorylation – biochemical, W721R variant, dose response (AID 504729); type: functional
T1 sequence (Q2TB90 whole entry): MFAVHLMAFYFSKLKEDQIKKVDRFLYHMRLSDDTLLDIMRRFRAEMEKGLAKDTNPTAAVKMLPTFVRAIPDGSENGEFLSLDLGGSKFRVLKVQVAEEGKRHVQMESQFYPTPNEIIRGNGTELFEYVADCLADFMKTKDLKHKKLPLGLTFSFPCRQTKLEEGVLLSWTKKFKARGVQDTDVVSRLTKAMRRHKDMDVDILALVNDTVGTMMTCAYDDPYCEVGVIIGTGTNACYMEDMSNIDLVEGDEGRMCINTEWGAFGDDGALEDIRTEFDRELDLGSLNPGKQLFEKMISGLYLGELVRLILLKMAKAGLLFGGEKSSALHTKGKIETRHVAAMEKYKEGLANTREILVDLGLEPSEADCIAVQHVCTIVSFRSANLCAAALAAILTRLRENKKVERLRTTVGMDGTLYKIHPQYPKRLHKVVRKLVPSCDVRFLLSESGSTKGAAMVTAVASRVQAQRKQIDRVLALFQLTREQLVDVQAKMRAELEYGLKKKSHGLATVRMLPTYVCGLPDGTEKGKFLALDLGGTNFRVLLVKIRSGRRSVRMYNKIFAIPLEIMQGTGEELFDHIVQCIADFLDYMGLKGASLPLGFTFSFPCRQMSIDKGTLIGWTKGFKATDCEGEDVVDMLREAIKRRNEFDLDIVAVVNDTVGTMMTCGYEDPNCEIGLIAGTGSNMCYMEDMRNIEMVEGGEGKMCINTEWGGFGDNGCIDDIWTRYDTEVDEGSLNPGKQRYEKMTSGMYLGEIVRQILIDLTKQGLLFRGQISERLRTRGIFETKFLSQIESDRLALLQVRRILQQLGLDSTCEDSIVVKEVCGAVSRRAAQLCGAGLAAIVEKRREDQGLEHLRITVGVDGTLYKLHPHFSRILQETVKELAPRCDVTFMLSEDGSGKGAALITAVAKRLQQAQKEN

[4] = molecular target: Intestinal-type alkaline phosphatase (Homo sapiens, UniProt P09923); test: activation of human intestinal alkaline phosphatase – biochemical, luminescent, uHTS hits, set 2, dose response (AID 488817); type: functional;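 also: potency of activators that raise enzyme activity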
[5] = molecular target: T2, Alkaline phosphatase, tissue-nonspecific isozyme (Homo sapiens, UniProt P05186); test: TNAP enzyme inhibition by screening hits, dose response, selectivity assay for mouse IAP inhibitor project, biochemical, human TNAP, uHTS hits (AID 488906); type: functional
T2 sequence (P05186 whole entry): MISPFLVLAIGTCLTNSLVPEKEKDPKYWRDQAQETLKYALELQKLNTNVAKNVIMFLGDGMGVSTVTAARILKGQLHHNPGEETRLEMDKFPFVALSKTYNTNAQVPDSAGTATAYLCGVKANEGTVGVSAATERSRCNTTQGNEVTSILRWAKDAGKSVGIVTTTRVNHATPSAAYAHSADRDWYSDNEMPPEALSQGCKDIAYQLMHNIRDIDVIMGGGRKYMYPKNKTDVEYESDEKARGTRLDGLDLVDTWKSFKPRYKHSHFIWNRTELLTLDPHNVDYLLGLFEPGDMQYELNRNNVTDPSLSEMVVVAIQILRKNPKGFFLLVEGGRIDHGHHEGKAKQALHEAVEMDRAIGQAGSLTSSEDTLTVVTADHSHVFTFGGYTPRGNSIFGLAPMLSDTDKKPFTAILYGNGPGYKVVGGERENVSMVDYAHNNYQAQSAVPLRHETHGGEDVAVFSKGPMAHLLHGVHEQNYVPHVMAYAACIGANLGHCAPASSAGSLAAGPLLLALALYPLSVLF

[6] = molecular target: Calcium/calmodulin-dependent protein kinase type II subunit beta (Homo sapiens, UniProt Q13554); type: functional
Sequence of Calcium/calmodulin-dependent protein kinase type II subunit beta (Q13554 whole entry, canonical isoform): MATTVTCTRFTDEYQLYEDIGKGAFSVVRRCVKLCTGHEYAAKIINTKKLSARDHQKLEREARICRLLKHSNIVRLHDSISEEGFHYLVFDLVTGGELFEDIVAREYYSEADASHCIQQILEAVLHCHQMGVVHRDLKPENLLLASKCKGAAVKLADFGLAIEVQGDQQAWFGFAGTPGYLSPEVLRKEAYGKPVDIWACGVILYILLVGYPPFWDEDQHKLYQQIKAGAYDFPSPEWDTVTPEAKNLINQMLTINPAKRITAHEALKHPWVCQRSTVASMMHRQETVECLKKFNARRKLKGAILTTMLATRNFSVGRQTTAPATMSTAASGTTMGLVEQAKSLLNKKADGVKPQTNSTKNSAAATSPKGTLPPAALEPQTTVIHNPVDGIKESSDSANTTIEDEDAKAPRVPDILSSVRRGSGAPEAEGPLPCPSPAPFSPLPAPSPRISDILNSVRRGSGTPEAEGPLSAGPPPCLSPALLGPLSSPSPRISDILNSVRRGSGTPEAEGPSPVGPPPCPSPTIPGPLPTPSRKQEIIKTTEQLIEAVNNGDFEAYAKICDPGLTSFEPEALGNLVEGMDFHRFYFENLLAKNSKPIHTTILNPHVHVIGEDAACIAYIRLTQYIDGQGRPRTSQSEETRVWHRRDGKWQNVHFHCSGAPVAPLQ

[7] = molecular target: Casein kinase I isoform alpha (Homo sapiens, UniProt P48729); type: functional
Sequence of Casein kinase I isoform alpha (P48729 whole entry, canonical isoform): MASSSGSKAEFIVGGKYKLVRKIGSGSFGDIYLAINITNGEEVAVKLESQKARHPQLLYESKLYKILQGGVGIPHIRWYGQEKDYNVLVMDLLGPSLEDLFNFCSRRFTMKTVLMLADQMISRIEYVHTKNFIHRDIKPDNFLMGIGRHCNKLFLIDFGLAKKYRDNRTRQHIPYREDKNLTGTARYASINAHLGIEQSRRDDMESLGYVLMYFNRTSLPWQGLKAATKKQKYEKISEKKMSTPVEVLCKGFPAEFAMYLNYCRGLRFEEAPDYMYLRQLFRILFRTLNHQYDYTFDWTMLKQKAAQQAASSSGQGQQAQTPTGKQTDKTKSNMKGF

[8] = molecular target: Maternal embryonic leucine zipper kinase (Homo sapiens, UniProt Q14680); type: functional
Sequence of Maternal embryonic leucine zipper kinase (Q14680 whole entry): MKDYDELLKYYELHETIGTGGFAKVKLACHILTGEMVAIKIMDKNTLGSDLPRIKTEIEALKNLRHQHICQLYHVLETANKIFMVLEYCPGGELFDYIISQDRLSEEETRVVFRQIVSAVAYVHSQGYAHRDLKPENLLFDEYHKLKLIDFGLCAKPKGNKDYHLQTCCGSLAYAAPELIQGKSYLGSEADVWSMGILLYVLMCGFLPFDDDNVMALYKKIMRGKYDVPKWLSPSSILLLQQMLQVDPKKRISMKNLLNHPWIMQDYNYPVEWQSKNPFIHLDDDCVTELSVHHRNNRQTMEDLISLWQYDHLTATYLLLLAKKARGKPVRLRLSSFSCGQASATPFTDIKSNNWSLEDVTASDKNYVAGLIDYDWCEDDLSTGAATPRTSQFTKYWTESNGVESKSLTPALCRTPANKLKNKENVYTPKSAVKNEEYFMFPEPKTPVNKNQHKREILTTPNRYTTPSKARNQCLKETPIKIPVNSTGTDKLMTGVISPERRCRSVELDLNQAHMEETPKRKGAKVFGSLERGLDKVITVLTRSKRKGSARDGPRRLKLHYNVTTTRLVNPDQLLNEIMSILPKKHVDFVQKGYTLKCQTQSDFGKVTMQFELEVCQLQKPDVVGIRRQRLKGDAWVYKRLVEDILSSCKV

[9] = molecular target: Mitogen-activated protein kinase 1 (Homo sapiens, UniProt P28482); type: functional
Sequence of Mitogen-activated protein kinase 1 (P28482 whole entry): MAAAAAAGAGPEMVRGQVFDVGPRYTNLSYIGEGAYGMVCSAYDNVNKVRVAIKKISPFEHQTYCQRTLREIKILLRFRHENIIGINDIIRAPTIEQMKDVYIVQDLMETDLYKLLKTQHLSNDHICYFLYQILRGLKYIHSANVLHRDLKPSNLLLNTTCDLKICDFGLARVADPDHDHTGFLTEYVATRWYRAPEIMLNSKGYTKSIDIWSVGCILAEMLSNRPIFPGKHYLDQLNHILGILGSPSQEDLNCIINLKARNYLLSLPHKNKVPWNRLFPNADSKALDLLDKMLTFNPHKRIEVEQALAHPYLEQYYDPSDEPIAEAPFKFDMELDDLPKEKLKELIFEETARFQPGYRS

[10] = molecular target: Mitogen-activated protein kinase kinase kinase kinase 2 (Homo sapiens, UniProt Q12851); type: functional;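 also: measured as one member of a kinome-wide kinase panel, with MAP4K2 as the panel entry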
[11] = molecular target: Cyclin-dependent kinase 8 (Homo sapiens, UniProt P49336); test: Navigating the Kinome. Panel member name: CDK8; type: functional
Sequence of Cyclin-dependent kinase 8 (P49336 whole entry): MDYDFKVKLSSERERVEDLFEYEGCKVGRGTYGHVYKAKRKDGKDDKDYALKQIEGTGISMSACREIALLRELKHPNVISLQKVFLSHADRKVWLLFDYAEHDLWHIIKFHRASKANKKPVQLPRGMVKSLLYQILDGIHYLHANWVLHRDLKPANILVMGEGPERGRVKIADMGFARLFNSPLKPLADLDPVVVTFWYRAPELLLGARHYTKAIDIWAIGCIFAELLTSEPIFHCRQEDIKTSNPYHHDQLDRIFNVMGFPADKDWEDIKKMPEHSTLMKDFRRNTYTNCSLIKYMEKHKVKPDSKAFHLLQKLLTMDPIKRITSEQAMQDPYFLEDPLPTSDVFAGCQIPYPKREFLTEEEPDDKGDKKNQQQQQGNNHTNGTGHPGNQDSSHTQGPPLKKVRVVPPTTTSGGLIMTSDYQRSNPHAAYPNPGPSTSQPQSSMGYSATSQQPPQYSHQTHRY

[12] = molecular target: Platelet-derived growth factor receptor beta (Homo sapiens, UniProt P09619); type: functional;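 also: value comes from a kinome panel, with PDGFRB tested as one panel member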
[13] = molecular target: Platelet-derived growth factor receptor alpha (Homo sapiens, UniProt P16234); test: Navigating the Kinome. Panel member name: PDGFRA; type: functional
[14] = molecular target: Leucine-rich repeat serine/threonine-protein kinase 2 (Homo sapiens, UniProt Q5S007); type: functional;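 also: value from a broad kinome-wide panel profiling study in which LRRK2 was one of the kinases tested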
[15] = molecular target: Vascular endothelial growth factor receptor 1 (Homo sapiens, UniProt P17948); type: functional;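 also: measured within a kinome-wide profiling panel, FLT1 as the panel member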
[16] = molecular target: Serine/threonine-protein kinase Nek2 (Homo sapiens, UniProt P51955); type: functional
[17] = molecular target: Tyrosine-protein kinase receptor UFO (Homo sapiens, UniProt P30530); type: functional
[18] = molecular target: cAMP-dependent protein kinase catalytic subunit alpha (Homo sapiens, UniProt P17612); type: functional
Aurora kinase B = Aurora kinase B (Homo sapiens, UniProt Q96GD4); type: functional
[19] = molecular target: Cyclin-dependent kinase 5 (Homo sapiens, UniProt Q00535); type: functional;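 also: CDK5 measured as one member of a kinase profiling panel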
Sequence of Cyclin-dependent kinase 5 (Q00535 whole entry): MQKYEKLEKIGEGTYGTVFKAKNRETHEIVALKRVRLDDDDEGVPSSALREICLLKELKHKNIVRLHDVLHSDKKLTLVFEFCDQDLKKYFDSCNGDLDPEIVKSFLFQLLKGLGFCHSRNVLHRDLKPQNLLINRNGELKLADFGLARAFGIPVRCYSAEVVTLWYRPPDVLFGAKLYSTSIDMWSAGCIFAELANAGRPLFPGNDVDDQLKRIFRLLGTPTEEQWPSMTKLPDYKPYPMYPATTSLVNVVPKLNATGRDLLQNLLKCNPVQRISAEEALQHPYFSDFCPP

Misshapen-like kinase 1 = Misshapen-like kinase 1 (Homo sapiens, UniProt Q8N4C8); type: functional;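 also: kinome panel screen with MINK as the panel member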
[20] = molecular target: Tyrosine-protein kinase SYK (Homo sapiens, UniProt P43405); type: functional
[21] = molecular target: Testis-specific serine/threonine-protein kinase 2 (Homo sapiens, UniProt Q96PF2); type: functional;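 also: part of the Navigating the Kinome panel, target entry STK22B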
Sequence of Testis-specific serine/threonine-protein kinase 2 (Q96PF2 whole entry): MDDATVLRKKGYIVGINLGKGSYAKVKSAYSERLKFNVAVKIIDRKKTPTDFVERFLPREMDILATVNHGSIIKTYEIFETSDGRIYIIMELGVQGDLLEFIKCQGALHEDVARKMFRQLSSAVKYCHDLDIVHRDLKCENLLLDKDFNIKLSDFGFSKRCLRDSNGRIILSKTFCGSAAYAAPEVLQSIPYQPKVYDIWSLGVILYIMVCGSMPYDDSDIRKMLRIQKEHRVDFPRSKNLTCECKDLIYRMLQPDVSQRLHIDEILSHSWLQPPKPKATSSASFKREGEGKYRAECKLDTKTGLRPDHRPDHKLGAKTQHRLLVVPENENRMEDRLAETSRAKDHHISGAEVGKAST

[22] = molecular target: Protein kinase C gamma type (Homo sapiens, UniProt P05129); type: functional
[23] = molecular target: Fibroblast growth factor receptor 3 (Homo sapiens, UniProt P22607); type: functional
Sequence of Fibroblast growth factor receptor 3 (P22607 whole entry): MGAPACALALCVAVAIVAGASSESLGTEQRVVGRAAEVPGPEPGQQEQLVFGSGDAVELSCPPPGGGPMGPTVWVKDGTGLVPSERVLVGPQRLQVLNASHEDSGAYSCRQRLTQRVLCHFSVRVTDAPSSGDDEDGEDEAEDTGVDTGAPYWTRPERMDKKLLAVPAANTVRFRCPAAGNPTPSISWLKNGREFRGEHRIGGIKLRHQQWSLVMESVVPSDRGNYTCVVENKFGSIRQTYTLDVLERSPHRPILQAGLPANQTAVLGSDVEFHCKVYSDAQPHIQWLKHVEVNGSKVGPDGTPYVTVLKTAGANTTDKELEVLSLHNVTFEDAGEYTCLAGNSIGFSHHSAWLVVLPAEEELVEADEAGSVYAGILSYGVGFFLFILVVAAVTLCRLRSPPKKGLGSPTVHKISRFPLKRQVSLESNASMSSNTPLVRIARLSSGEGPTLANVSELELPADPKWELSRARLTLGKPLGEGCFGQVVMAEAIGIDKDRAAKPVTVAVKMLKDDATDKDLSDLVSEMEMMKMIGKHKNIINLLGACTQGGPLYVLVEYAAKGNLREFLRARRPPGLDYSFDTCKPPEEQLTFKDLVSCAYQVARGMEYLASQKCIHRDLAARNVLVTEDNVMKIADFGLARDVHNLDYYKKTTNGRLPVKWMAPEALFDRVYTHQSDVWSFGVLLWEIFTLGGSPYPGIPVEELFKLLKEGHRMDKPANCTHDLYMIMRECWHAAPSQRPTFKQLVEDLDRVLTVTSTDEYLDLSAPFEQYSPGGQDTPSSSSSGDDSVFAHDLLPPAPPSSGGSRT

[24] = molecular target: Induced myeloid leukemia cell differentiation protein Mcl-1 (Homo sapiens, UniProt Q07820); type: functional
Sequence of Induced myeloid leukemia cell differentiation protein Mcl-1 (Q07820 whole entry): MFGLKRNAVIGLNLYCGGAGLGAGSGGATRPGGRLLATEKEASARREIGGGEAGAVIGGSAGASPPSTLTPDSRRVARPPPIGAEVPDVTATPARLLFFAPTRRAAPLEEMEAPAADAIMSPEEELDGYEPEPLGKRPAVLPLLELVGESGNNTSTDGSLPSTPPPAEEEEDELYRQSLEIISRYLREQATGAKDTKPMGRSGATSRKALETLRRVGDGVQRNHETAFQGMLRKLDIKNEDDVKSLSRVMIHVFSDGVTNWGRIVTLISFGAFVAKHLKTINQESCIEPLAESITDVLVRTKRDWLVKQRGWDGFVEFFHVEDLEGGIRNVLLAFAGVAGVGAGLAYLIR

Structure (SMILES): COC(=O)C1CN(C#N)N(c2ccc(Cl)cc2)C12c1ccccc1-c1ccccc12 (configuration not stated)
EC50 [1]: 3.75 µM (active) | EC50 (BJ [2]): 2.9 µM (active) | EC50 (BJ [3]): 2.49 µM (inconclusive) | IC50 (Hexokinase HKDC1): 3.81 µM (active)

EC50 [4]: 12.4 µM (active) | IC50 [5]: > 100 µM (inactive)
Structure (SMILES): O=C(NN1C(=O)CSC1=S)C(=O)NN1C(=O)CSC1=S

Ki [6]: > 7.94 µM (inactive) | Ki [7]: > 5.01 µM (inactive) | Ki [8]: > 1.58 µM (inactive) | Ki [9]: > 7.94 µM (inactive) | Ki [10]: 15.8 µM (active) | Ki [11]: 0.501 µM (active) | Ki [12]: 7.94 µM (active) | Ki [13]: 6.31 µM (active) | Ki [14]: 3.16 µM (active) | Ki [15]: > 10 µM (inactive) | Ki [16]: > 10 µM (inactive) | Ki [17]: > 2 µM (inactive) | Ki [18]: 2.51 µM (active) | Ki (Aurora kinase B): 3.98 µM (active) | Ki [19]: > 6.31 µM (inactive) | Ki (Misshapen-like kinase 1): 3.16 µM (active) | Ki [20]: > 1.58 µM (inactive) | Ki [21]: > 1.58 µM (inactive) | Ki [22]: > 7.94 µM (inactive) | Ki [23]: > 2 µM (inactive)
Structure (SMILES): Nc1noc2cccc(-c3cccc(O)c3)c12

Structure (SMILES): O=C1NC(=S)S/C1=C\C=C\c1ccc([N+](=O)[O-])o1
IC50 [24]: 1.92 µM (active)
